# pIC50: −log10 of the molar value.
# Molecular target: MAT2A (Homo sapiens, UniProt P31153)
# Assay: MAT2A Biochemical Assay
# Settings: read-out: MAT2A enzymatic IC50
# Procedure: Example A: MAT2A Biochemical Assay
# Compounds described herein were tested as follows:
# • (1). Prepared 1×Assay buffer. • (2). Preparation of compound concentration gradient: the compounds test condition were […], 3-fold dilution, 10 doses, singlet or duplicate. 100x concentration compounds were prepared in 384-well plate. Then used Echo 550 to transfer 250 nl to a 384-reaction plate for later use. Added 250 nl of 100% DMSO to the negative and positive control wells. • (3). Prepared 1.67× final concentration enzyme solution with 1×Assay buffer. • (4). Added 15 μl of 1.67× Enzyme solution to the compound wells and positive control wells; added 15 μl of 1×Assay buffer to the negative control wells. • (5). Centrifuged at 1000 rpm for 30 seconds and incubate for 15 minutes. • (6). Prepared 2.5× final concentration Substrate mix solution with 1×Assay buffer. • (7). Added 10 μl of 2.5× final concentration Substrate mix solution to start the reaction. • (8). Centrifuged at 1000 rpm for 30 seconds and incubate for 150 minutes. • (9). Added […] Biomol Green to stop the reaction, centrifuge at 1000 rpm for 30 seconds and incubate for 15 minutes. read O.D.620, process data.
# • (1) Using GraphPad Prism 5.
# [formula] • (3) Max signal was obtained from the positive control wells. • (4) Min signal was obtained from the negative control wells.
# MAT2A, sequence (P31153 whole entry, species assumed): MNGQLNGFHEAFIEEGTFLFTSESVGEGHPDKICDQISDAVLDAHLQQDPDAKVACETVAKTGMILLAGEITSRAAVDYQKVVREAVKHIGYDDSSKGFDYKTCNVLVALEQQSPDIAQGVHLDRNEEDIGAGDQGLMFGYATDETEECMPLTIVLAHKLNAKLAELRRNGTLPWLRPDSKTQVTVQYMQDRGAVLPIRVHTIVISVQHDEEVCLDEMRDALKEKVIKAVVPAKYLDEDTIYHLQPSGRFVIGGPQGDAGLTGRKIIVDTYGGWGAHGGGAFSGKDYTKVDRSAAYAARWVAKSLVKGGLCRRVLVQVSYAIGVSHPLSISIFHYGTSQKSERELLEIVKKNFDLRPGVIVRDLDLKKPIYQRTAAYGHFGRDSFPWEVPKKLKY
row,pIC50,SMILES
1,> 7.30,C#CCNc1nc(=O)n(-c2cccnc2)c2cc(Cl)ccc12 [Example 1]
2,> 7.30,O=c1nc(NCC#CC2CC2)c2ccc(Cl)cc2n1-c1cccnc1 [Example 2]
3,> 7.30,C#CC1(Nc2nc(=O)n(-c3cccnc3)c3cc(Cl)ccc23)CC1 [Example 4]
4,> 7.30,C#CCCCNc1nc(=O)n(-c2cccnc2)c2cc(C(F)(F)F)ccc12 [Example 6]
5,> 7.30,C#CCNc1nc(=O)n(-c2cccnc2)c2cc(C(F)(F)F)ccc12 [Example 7]
6,> 7.30,C#CCCNc1nc(=O)n(-c2ccccc2Cl)c2cc(Cl)ccc12 [Example 8]
7,> 7.30,C#CCNc1nc(=O)n(-c2ccccc2Cl)c2cc(Cl)ccc12 [Example 10]
8,< 6.00,C#CC1CCN(c2nc(=O)n(-c3ccccc3Cl)c3cc(Cl)ccc23)CC1 [Example 13]
9,> 7.30,O=c1nc(NCC#CCN2CCOCC2)c2ccc(C(F)(F)F)cc2n1-c1cccnc1 [Example 14]
10,> 7.30,C#CCNc1nc(=O)n(-c2cccnc2C)c2cc(Cl)ccc12 [Example 15]
11,> 7.30,C#CC1(Nc2nc(=O)n(-c3cccnc3C)c3cc(Cl)ccc23)CC1 [Example 16]
12,> 7.30,C#CCNc1nc(=O)n(-c2cnccn2)c2cc(Cl)ccc12 [Example 17]
13,> 7.30,C#CCNc1nc(=O)n(-c2cccnc2)c2cc(Br)ccc12 [Example 18]
14,> 7.30,C#CCNc1nc(=O)n(-c2cccnc2C)c2cc(Br)cc(OC)c12 [Example 19]
15,> 7.30,C#CCNc1nc(=O)n(-c2cccnc2)c2cc(Cl)cc(OC)c12 [Example 20]
16,> 7.30,C#CCNc1nc(=O)n(-c2cnccn2)c2cc(Cl)cc(OC)c12 [Example 21]
17,> 7.30,C#CCNc1nc(=O)n(-c2cccnc2C)c2cc(Cl)cc(OC)c12 [Example 22]
18,> 7.30,C#CCNc1nc(=O)n(-c2nccnc2C)c2cc(Cl)cc(OC)c12 [Example 23]
19,> 7.30,C#CC1(Nc2nc(=O)n(-c3cnccn3)c3cc(Cl)cc(OC)c23)CC1 [Example 24]
20,> 7.30,C#CC1(Nc2nc(=O)n(-c3nccnc3C)c3cc(Cl)cc(OC)c23)CC1 [Example 25]

row,pIC50,SMILES
1,> 7.30,C#CC(C)Nc1nc(=O)n(-c2cccnc2C)c2cc(Cl)cc(OC)c12 (stereo not drawn) [Example 26]
2,> 7.30,C#CC1(Nc2nc(=O)n(-c3cccnc3C)c3cc(Cl)cc(OC)c23)CC1 [Example 27]
3,> 7.30,C#CC1(Nc2nc(=O)n(-c3cccnc3C)c3cc(Cl)cc(OC)c23)CCC1 [Example 28]
4,> 7.30,C#CCNc1nc(=O)n(-c2cccnc2)c2cc(Cl)cc(F)c12 [Example 29]
5,> 7.30,C#CCNc1nc(=O)n(-c2cccnc2C)c2cc(Cl)cc(F)c12 [Example 30]
6,> 7.30,C#CC1(Nc2nc(=O)n(-c3cccnc3C)c3cc(Cl)cc(F)c23)CC1 [Example 31]
7,> 7.30,C#CCNc1nc(=O)n(-c2cccnc2C)c2cc(C(F)(F)F)ccc12 [Example 33]
8,> 7.30,C#CCNc1nc(=O)n(-c2cccnc2)c2cc(C(F)(F)F)cc(OC)c12 [Example 34]
9,> 7.30,C#CC(C)Nc1nc(=O)n(-c2cccnc2)c2cc(C(F)(F)F)cc(OC)c12 (stereo not drawn) [Example 35]
10,> 7.30,C#CC(C)Nc1nc(=O)n(-c2cccnc2C)c2cc(C(F)(F)F)cc(OC)c12 (stereo not drawn) [Example 37]
11,> 7.30,C#CCNc1nc(=O)n(-c2cccnc2)c2cc(C(F)(F)F)cc(OCF)c12 [Example 38]
12,> 7.30,C#CCNc1nc(=O)n(-c2cccnc2C)c2cc(C(F)(F)F)cc(OC(F)F)c12 [Example 40]
13,> 7.30,C#CCNc1nc(=O)n(-c2cccnc2C)c2nc(C(F)(F)F)cc(OC)c12 [Example 42]
14,> 7.30,C#CCNc1nc(=O)n(-c2cccnc2C(C)C)c2cc(C(F)(F)F)ccc12 [Example 45]
15,> 7.30,C#CC1(Nc2nc(=O)n(-c3cccnc3C)c3cc(C(F)(F)F)ccc23)CC1 [Example 46]
16,> 7.30,C#CC1(Nc2nc(=O)n(-c3cccnc3)c3cc(C(F)(F)F)cc(OC)c23)CC1 [Example 47]
17,> 7.30,C#CCNc1nc(=O)n(-c2nccnc2C)c2cc(C(F)(F)F)cc(OC)c12 [Example 48]
18,> 7.30,C#CC1(Nc2nc(=O)n(-c3cccnc3C)c3cc(C(F)(F)F)cc(OC)c23)CC1 [Example 49]
19,> 7.30,C#CC1(Nc2nc(=O)n(-c3cccnc3C)c3cc(C(F)(F)F)cc(OC)c23)CCC1 [Example 50]
20,> 7.30,C#CCN(C)c1nc(=O)n(-c2cccnc2)c2cc(C(F)(F)F)ccc12 [Example 51]

row,pIC50,SMILES
1,> 7.30,C#CCNc1nc(=O)n(-c2c(C)ccnc2C)c2cc(C(F)(F)F)ccc12 [Example 52]
2,> 7.30,C#CCNc1nc(=O)n(-c2cnccn2)c2cc(C(F)(F)F)ccc12 [Example 53]
3,> 7.30,C#CCNc1nc(=O)n(-c2cnccn2)c2cc(C(F)(F)F)cc(OC)c12 [Example 54]
4,< 6.00,C#CC1(Nc2nc(=O)n(-c3cccnc3)c3cc(C(F)(F)F)cnc23)CC1 [Example 56]
5,> 7.30,C#CCNc1nc(=O)n(-c2cccnc2)c2nc(C(F)(F)F)ccc12 [Example 57]
6,> 7.30,C#CCNc1nc(=O)n(-c2cccnc2)c2nc(C(F)(F)F)ncc12 [Example 61]
7,> 7.30,C#CCNc1nc(=O)n(-c2cccnn2)c2nc(C(F)(F)F)ccc12 [Example 63]
8,> 7.30,C#CC(C)Nc1nc(=O)n(-c2cccnc2)c2cc(C(F)(F)F)ccc12 (stereo not drawn) [Example 64]
9,> 7.30,C#CC1(Nc2nc(=O)n(-c3cccnc3)c3cc(Cl)cc(OC)c23)CC1 [Example 66]
10,> 7.30,C#CC1(Nc2nc(=O)n(-c3cccnc3)c3cc(C(F)(F)F)ccc23)CC1 [Example 67]
11,> 7.30,C#CC1(Nc2nc(=O)n(-c3cccnc3)c3nc(C(F)(F)F)ccc23)CC1 [Example 68]
12,> 7.30,C#CC1(Nc2nc(=O)n(-c3cnccn3)c3cc(C(F)(F)F)ccc23)CC1 [Example 69]
13,> 7.30,C#CC1(Nc2nc(=O)n(-c3cccnn3)c3nc(C(F)(F)F)ccc23)CC1 [Example 70]
14,> 7.30,C=CCNc1nc(=O)n(-c2cccnc2)c2cc(Cl)cc(OC)c12 [Example 73]
15,> 7.30,C=CCNc1nc(=O)n(-c2cccnc2C)c2cc(Cl)cc(OC)c12 [Example 74]
16,> 7.30,C=CC1(Nc2nc(=O)n(-c3cccnc3C)c3cc(Cl)cc(OC)c23)CC1 [Example 75]
17,> 7.30,C=CCNc1nc(=O)n(-c2cccnc2)c2cc(C(F)(F)F)ccc12 [Example 76]
18,> 7.30,C=CCNc1nc(=O)n(-c2cccnc2C)c2cc(C(F)(F)F)cc(OC)c12 [Example 77]

# Test system: NCI-H838 MTAP null xenografts
# Assay: Efficacy study of NCI-H838 human lung cancer xenograft model in NOD SCID mice
# Format: in vivo
# Settings: MRTX1719 50 mg/kg QD
# Description: Efficacy Study of NCI-H838 Human Lung Cancer Xenograft Model in NOD SCID Mice Methods:
# The NCI-H838 cancer cells were maintained in vitro with RPMI-1640 medium supplemented with 10% fetal bovine serum at 37TC in an atmosphere of 5% CO2 in the air. The cells in exponential growth phase were harvested and quantitated by cell counter before tumor inoculation.
# NOD SCID mice, female, 6-8 weeks, weighing approximately 20-22 g, All the mice were purchased from Shanghai Lingchang Bio-Tech Co., Ltd.
# Each mouse was inoculated subcutaneously at the right flank with NCI-H838 cells in a 0.1 mL of PBS mixed with Matrigel (1:1) for tumor development (5×10^6 cells/mouse). Dosing was started when the average tumor size reached approximately ~150 mm^3 for the tumor efficacy study with tool and med chem molecules to look for efficacy vs vehicle tumor growth.
# Mean tumor volume at dosing start was approximately 146.51 mm^3, with six mice randomized to each treatment group. In the NCI-H838 MTAP null tumor model, mice were dosed orally, once per day (QD) with vehicle, once per day (QD) with Compound 1 at 3, 10 mg/kg, mice were intravenous, once per day (QD) with PRMT5 inhibitor MRTX1719 at 50 mg/kg, or Compound 1 combined with MRTX1719 at each dose level.
row,SMILES,TGI (%)
1,"Cn1ncc(-c2ccc3c(=O)[nH]nc(CN)c3c2)c1-c1c(F)c(Cl)cc(OC2CC2)c1C#N [MRTX1719, reference compound]",81.5

# Same assay, conditions: MRTX1719 50 mg/kg QD; Mean ± SD
row,SMILES,Tumor volume (mm^3) Final (mean) [mm^3]
1,"Cn1ncc(-c2ccc3c(=O)[nH]nc(CN)c3c2)c1-c1c(F)c(Cl)cc(OC2CC2)c1C#N [MRTX1719, reference compound]",501 ± 69
